Laboratory results as given in PubChem BioAssay (NCI).
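Where inhibition never reached the appropriate level, the endpoint shown equals the highest concentration tested. Otherwise, values were interpolated linearly from a five-concentration, 48-hour dose response in 96-well plates. The concentration for 50% growth inhibition is given as GI50. At the TGI there is no net growth.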

Columns and labels:
Assay in all cases: DTP human tumour cell line panel, 48 h
[1] = tested on: NCI-H522 lung
[2] = tested on: SK-MEL-2 melanoma
[3] = tested on: A549 NSCLC
[4] = tested on: HT29 colon
[5] = tested on: ACHN renal
[6] = tested on: HOP-62 NSCLC
[7] = tested on: EKVX NSCLC
[8] = tested on: SNB-19 CNS
[9] = tested on: HL-60(TB) leukemia

Row | SMILES | TGI [1] | TGI [2] | TGI [3] | TGI [4] | TGI [5] | TGI [6] | TGI [7] | TGI [8] | TGI [9] | GI50 [1] | GI50 [2] | GI50 [3] | GI50 [5] | GI50 [6] | GI50 [7] | GI50 [8]
1 | CC1(Br)CC2OC3(Br)C=CC(C)(O)C2(CC1=O)C3(C)C (configuration not stated) | > 100 µM | > 100 µM | > 100 µM | > 100 µM | > 100 µM | > 100 µM | > 100 µM | > 100 µM |  |  |  |  |  |  |  | 
2 | CCOC(=O)C(N=C(c1ccccc1)c1ccccc1)N(C(=O)OC(C)(C)C)C(=O)OC(C)(C)C (configuration not stated) | > 100 µM | > 100 µM | > 100 µM | > 100 µM | > 100 µM |  | > 100 µM | > 100 µM |  |  |  |  |  |  |  | 
3 | COc1ccc(Cc2c(=O)[nH]nc3ccccc23)cc1 |  | > 100 µM | > 100 µM | > 100 µM | > 100 µM | > 100 µM | > 100 µM | > 100 µM |  |  |  |  |  |  |  | 
4 | Cc1cc(C)n(-c2ccnc3cc(Cl)ccc23)n1 |  | > 100 µM | > 100 µM | > 100 µM | > 100 µM | > 100 µM | > 100 µM | > 100 µM | > 100 µM |  |  |  |  |  |  | 
5 | CCCCNC(=O)C1C(=O)N(CCCC)C(=O)/C1=N\N (configuration not stated) | > 100 µM | > 100 µM |  | > 100 µM | > 100 µM | > 100 µM | > 100 µM | > 100 µM |  |  |  |  |  |  |  | 
6 | O=[N+]([O-])c1cc([N+](=O)[O-])c(/C=C/c2ccc(Cl)c(Cl)c2)cc1/C=C/c1ccc(Cl)c(Cl)c1 | 56.4 µM | 56.4 µM | > 100 µM | 63.7 µM | 81.9 µM |  | > 100 µM | 66.5 µM | 49.2 µM |  |  |  |  |  |  | 
7 | CCOC(=O)NC/C=C/COC1CCCCO1 (configuration not stated) | > 100 µM | > 100 µM | > 100 µM |  | > 100 µM | > 100 µM |  | > 100 µM | > 100 µM |  |  |  |  |  |  | 
8 | Cc1nn2c(nc1=O)sc1ccc3ccccc3c12 |  | > 100 µM | > 100 µM | > 100 µM | > 100 µM | > 100 µM | > 100 µM | > 100 µM | > 100 µM |  |  |  |  |  |  | 
9 | CCCCCCCCCCCC(=O)N1CCN(C(C)=O)CC1 | 38.4 µM | 35.7 µM | > 100 µM |  | > 100 µM | 36.4 µM | > 100 µM | 40 µM |  | 17.4 µM | 19.2 µM | 28 µM | 62.1 µM | 18.1 µM | 33.5 µM | 19.3 µM
10 | CCCNCC(=O)O[C@]1(CC)C(=O)OCc2c1cc1n(c2=O)Cc2cc3ccccc3nc2-1 | 1.63 µM | 3.68 µM | 1.98 µM | > 100 µM | 0.233 µM |  | > 100 µM | > 100 µM | 0.553 µM |  |  |  |  |  |  | 
